{
  "source": "ChEMBL document CHEMBL5154737",
  "about": "“Semisynthesis and biological evaluation of (+)-sclerotiorin derivatives as antitumor agents for the treatment of hepatocellular carcinoma” (Eur J Med Chem, 2022)",
  "key": {"[1]": {"assay": "Half life in Sprague-Dawley rat at 20 mg/kg, ip measured for 0.03 to 24 hrs by UPLC-MS analysis", "format": "ADME, organism-based", "details": "in vivo, time 0.03-24 hrs"}, "[2]": {"test_system": "Bel-7402", "assay": "Induction of apoptosis in human Bel-7402 cells assessed as dead cells at 2.5 uM incubated for 24 hrs by Annexin V and dead cell assay kit (reference value: 0.80 %)", "format": "functional"}, "[3]": {"test_system": "Bel-7402", "assay": "Induction of apoptosis in human Bel-7402 cells assessed as late apoptotic cells at 2.5 uM incubated for 24 hrs in presence of U0126 by Annexin V and Dead cell kit assay (reference value: 3.85 %)", "format": "functional"}, "[4]": {"test_system": "Bel-7402", "assay": "Induction of apoptosis in human Bel-7402 cells assessed as dead cells at 1.25 uM incubated for 24 hrs by Annexin V and dead cell assay kit (reference value: 0.80 %)", "format": "functional"}, "[5]": {"assay": "Toxicity in ICR mouse assessed as change in monocyte level at 100 mg/kg, ip qd (reference value: 3.2 %)", "format": "organism-based", "details": "in vivo"}, "[6]": {"assay": "Acute toxicity in ICR mouse assessed as behavioural change at 100 to 500 mg/kg, ip", "format": "organism-based", "details": "in vivo, dose 100-500 mg/kg"}, "[7]": {"assay": "Toxicity in ICR mouse assessed as change in lymphocyte count at 100 mg/kg, ip qd (reference value: 3.0 10^9/L)", "format": "organism-based", "details": "in vivo"}, "[8]": {"assay": "Biodistribution in tumor of mouse bearing tumor measured after 4 hr by ICG dye based fluorescence imaging", "format": "ADME, organism-based, Neoplasm", "details": "in vivo"}, "[9]": {"assay": "Sub-chronic toxicity in ICR mouse assessed as body weight change at 100 mg/kg/day, ip for 26 days", "format": "organism-based", "details": "in vivo, 624 h, time 26 day"}, "[10]": {"assay": "Chronic toxicity in ICR mouse assessed as effect on heart morphology at 100 mg/kg, ip qd measured after 26 days by H and E staining method", "format": "organism-based", "details": "in vivo, 624 h, time 26 day"}, "[11]": {"test_system": "Bel-7402", "assay": "Induction of apoptosis in human Bel-7402 cells assessed as late apoptotic cells at 1.25 uM incubated for 24 hrs by Annexin V and dead cell assay kit (reference value: 4.45 %)", "format": "functional"}, "[12]": {"test_system": "Bel-7402", "assay": "Induction of apoptosis in human Bel-7402 cells assessed as early apoptotic cells at 2.5 uM incubated for 24 hrs by Annexin V and dead cell assay kit (reference value: 3.75 %)", "format": "functional"}, "[13]": {"test_system": "Bel-7402", "assay": "Cytotoxicity against human Bel-7402 cells assessed as inhibition rate at 5 uM incubated for 72 hrs by MTT assay relative to control", "format": "functional", "set-up": "scale not given: the % may be the effect or the level left"}, "[14]": {"test_system": "Bel-7402", "assay": "Induction of apoptosis in human Bel-7402 cells assessed as viable cells at 0.625 uM incubated for 24 hrs by Annexin V and dead cell assay kit (reference value: 91.00%)", "format": "functional", "details": "read-out: Activity"}, "[15]": {"assay": "Toxicity in ICR mouse assessed as change in white blood cell count at 100 mg/kg, ip qd (reference value: 4.0 10^9/L)", "format": "organism-based", "details": "in vivo"}, "[16]": {"assay": "Toxicity in ICR mouse assessed as change in mean corpuscular hemoglobin level at 100 mg/kg, ip qd (reference value: 17.5 pg)", "format": "organism-based", "details": "in vivo"}, "[17]": {"assay": "Toxicity in ICR mouse assessed as change in red blood cell count at 100 mg/kg, ip qd (reference value: 7.05 10^12/L)", "format": "organism-based", "details": "in vivo"}, "[18]": {"assay": "Chronic toxicity in ICR mouse assessed as effect on kidney morphology at 100 mg/kg, ip qd measured after 26 days by H and E staining method", "format": "organism-based", "details": "in vivo, 624 h, time 26 day"}, "[19]": {"test_system": "Bel-7402", "assay": "Induction of apoptosis in human Bel-7402 cells assessed as early apoptotic cells at 0.625 uM incubated for 24 hrs by Annexin V and dead cell assay kit (reference value: 3.75 %)", "format": "functional"}, "[20]": {"assay": "Acute toxicity in ICR mouse assessed as change in amount of food intake at 100 to 500 mg/kg, ip", "format": "organism-based", "details": "in vivo, dose 100-500 mg/kg"}, "[21]": {"test_system": "Bel-7402", "assay": "Cytotoxicity against human Bel-7402 cells assessed as inhibition rate at 5 uM by MTT assay", "format": "functional, cell-based", "details": "time 72.0 hrs, TDE = time-dependent effect"}, "[22]": {"test_system": "Bel-7402", "assay": "Induction of apoptosis in human Bel-7402 cells assessed as dead cells at 0.313 uM incubated for 24 hrs by Annexin V and dead cell assay kit (reference value: 0.80 %)", "format": "functional"}, "[23]": {"assay": "Toxicity in ICR mouse assessed as change in neutrophile granulocytes level at 100 mg/kg, ip qd (reference value: 0.9 10^9/L)", "format": "organism-based", "details": "in vivo"}, "[24]": {"assay": "Toxicity in ICR mouse assessed as change in neutrophile granulocyte level at 100 mg/kg, ip qd (reference value: 21.6 %)", "format": "organism-based", "details": "in vivo"}, "[25]": {"assay": "Sub-chronic toxicity in ICR mouse assessed as behavioural change at 100 mg/kg/day, ip for 26 days", "format": "organism-based", "details": "in vivo, 624 h, time 26 day"}, "[26]": {"test_system": "Bel-7402", "assay": "Antitumor activity against human Bel-7402 cells xenografted in BALB/c nude mouse assessed as tumor growth inhibition at 20 mg/kg, ip bid for 14 days measured every 2 days relative to control", "format": "functional", "details": "Bel-7402, 336 h, time 14 day, read-out: TGI"}, "[27]": {"test_system": "Bel-7402", "assay": "Induction of apoptosis in human Bel-7402 cells assessed as early apoptotic cells at 0.313 uM incubated for 24 hrs by Annexin V and dead cell assay kit (reference value: 3.75 %)", "format": "functional"}, "[28]": {"test_system": "Bel-7402", "assay": "Induction of AKT degradation in human Bel-7402 cells at 2.5 uM incubated for 24 hrs in presence of chloroquine by Western blot analysis", "format": "cell-based"}, "[29]": {"test_system": "Bel-7402", "assay": "Induction of apoptosis in human Bel-7402 cells assessed as late apoptotic cells at 2.5 uM incubated for 24 hrs by Annexin V and Dead cell kit assay (reference value: 3.85 %)", "format": "functional"}, "[30]": {"assay": "Biodistribution in lung of mouse bearing tumor measured after 24 hr by ICG dye based fluorescence imaging", "format": "ADME, organism-based", "details": "in vivo"}, "[31]": {"assay": "Toxicity in ICR mouse assessed as change in mean platelet volume at 100 mg/kg, ip qd (reference value: 5.6 fL)", "format": "organism-based", "details": "in vivo"}, "[32]": {"test_system": "Bel-7402", "assay": "Induction of apoptosis in human Bel-7402 cells assessed as viable cells at 2.5 uM incubated for 24 hrs by Annexin V and dead cell assay kit (reference value: 91.00%)", "format": "functional", "details": "read-out: Activity"}, "[33]": {"assay": "Chronic toxicity in ICR mouse assessed as effect on liver morphology at 100 mg/kg, ip qd measured after 26 days by H and E staining method", "format": "organism-based", "details": "in vivo, 624 h, time 26 day"}, "[34]": {"assay": "Drug elimination in mouse bearing tumor measured after 24 hr by ICG dye based fluorescence imaging", "format": "ADME", "details": "in vivo"}, "[35]": {"test_system": "Bel-7402", "assay": "Induction of apoptosis in human Bel-7402 cells assessed as viable cells at 1.25 uM incubated for 24 hrs by Annexin V and dead cell assay kit (reference value: 91.00%)", "format": "functional", "details": "read-out: Activity"}, "[36]": {"assay": "Cytotoxicity against human HepG2 cells assessed as reduction in cell viability incubated for 72 hrs by MTT assay", "format": "toxicity, cell-based"}, "[37]": {"test_system": "Bel-7402", "assay": "Induction of AKT degradation in human Bel-7402 cells at 2.5 uM incubated for 24 hrs in presence of Z-vad-fmk by Western blot analysis", "format": "cell-based"}, "[38]": {"assay": "Biodistribution in whole body of mouse bearing tumor measured after 1 hr by ICG dye based fluorescence imaging", "format": "ADME, organism-based", "details": "in vivo"}, "[39]": {"test_system": "Bel-7402", "assay": "Induction of apoptosis in human Bel-7402 cells assessed as early apoptotic cells at 2.5 uM incubated for 24 hrs in presence of U0126 by Annexin V and Dead cell kit assay (reference value: 3.7 %)", "format": "functional"}},
  "note": "Calls of active or inactive are those of the source. The rule behind the calls is not given here.",
  "data": [
    {"molecule": "CC[C@H](C)/C=C(C)/C=C/C1=CC2=C(Cl)C(=O)[C@](C)(O)C(=O)C2=CN1Cc1ccc(OC(F)(F)F)cc1", "values": [
      {"measurement": "half-life", "setting": "[1]", "result": 2.5, "unit": "h"},
      {"measurement": "Activity", "setting": "[2]", "result": 3.35, "unit": "%"},
      {"measurement": "Activity", "setting": "[3]", "result": 36.9, "unit": "%"},
      {"measurement": "Activity", "setting": "[4]", "result": 0.75, "unit": "%"},
      {"measurement": "Activity", "setting": "[5]", "result": 8.1, "unit": "%"},
      {"measurement": "Activity", "setting": "[6]", "result": "Non-Toxic"},
      {"measurement": "Activity", "setting": "[7]", "result": "1.7 10^9/L"},
      {"measurement": "Activity", "setting": "[8]", "result": "Active"},
      {"measurement": "Activity", "setting": "[9]", "result": "Non-Toxic"},
      {"measurement": "Activity", "setting": "[10]", "result": "Non-Toxic"},
      {"measurement": "Activity", "setting": "[11]", "result": 5.75, "unit": "%"},
      {"measurement": "Activity", "setting": "[12]", "result": 16.55, "unit": "%"},
      {"measurement": "Activity", "setting": "[13]", "result": 90.13, "unit": "%"},
      {"measurement": "viability at 0.625 µM", "setting": "[14]", "result": 91.6, "unit": "%"},
      {"measurement": "Activity", "setting": "[15]", "result": "3.4 10^9/L"},
      {"measurement": "Activity", "setting": "[16]", "result": 16.8, "unit": "pg"},
      {"measurement": "Activity", "setting": "[17]", "result": "8.37 10^12/L"},
      {"measurement": "Activity", "setting": "[18]", "result": "Non-Toxic"},
      {"measurement": "Activity", "setting": "[19]", "result": 4.7, "unit": "%"},
      {"measurement": "Activity", "setting": "[20]", "result": "Non-Toxic"},
      {"measurement": "Activity", "setting": "[21]", "result": "Tde"},
      {"measurement": "Activity", "setting": "[22]", "result": 0.35, "unit": "%"},
      {"measurement": "Activity", "setting": "[23]", "result": "1.4 10^9/L"},
      {"measurement": "Activity", "setting": "[24]", "result": 41.6, "unit": "%"},
      {"measurement": "Activity", "setting": "[25]", "result": "Non-Toxic"},
      {"measurement": "inhibition in vivo at 20 mg/kg", "setting": "[26]", "result": 52.5, "unit": "%"},
      {"measurement": "Activity", "setting": "[27]", "result": 3.75, "unit": "%"},
      {"measurement": "Activity", "setting": "[28]", "result": "Active"},
      {"measurement": "Activity", "setting": "[29]", "result": 37.9, "unit": "%"},
      {"measurement": "Activity", "setting": "[30]", "result": "Active"},
      {"measurement": "Activity", "setting": "[31]", "result": 6.7, "unit": "fL"},
      {"measurement": "viability at 2.5 µM", "setting": "[32]", "result": 44.9, "unit": "%"},
      {"measurement": "Activity", "setting": "[33]", "result": "Non-Toxic"},
      {"measurement": "Drug excretion", "setting": "[34]", "result": "Metabolite_Detected"},
      {"measurement": "viability at 1.25 µM", "setting": "[35]", "result": 88.4, "unit": "%"},
      {"measurement": "IC50 at 72 h", "setting": "[36]", "result": 2.82, "unit": "µM"},
      {"measurement": "Activity", "setting": "[37]", "result": "Active"},
      {"measurement": "Activity", "setting": "[38]", "result": "Active"},
      {"measurement": "Activity", "setting": "[39]", "result": 26.1, "unit": "%"}
    ]}
  ]
}
